Data from ChEMBL document CHEMBL1201862, “PubChem BioAssay data set” (2004).
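All cell lines were grown in 96-well plates and treated with compound for 48 hours. GI50 = concentration required for 50% inhibition of growth.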 Active and inactive are the calls of the source. No stated cut-off is given here; in the data, active = GI50 up to about 1.1 µM and inactive = higher.

Assays:
Assay in all cases: growth of human tumour cells (NCI), 48 h
[1] = tested on: MCF7
[2] = tested on: OVCAR-3
[3] = tested on: 786-0
[4] = tested on: HT-29
[5] = tested on: M14
[6] = tested on: TK-10
[7] = tested on: HCT-15
[8] = tested on: SW-620
[9] = tested on: RXF 393
[10] = tested on: DU-145
[11] = tested on: OVCAR-8
[12] = tested on: U-251
[13] = tested on: NCI-H226
[14] = tested on: SNB-75
[15] = tested on: MDA-N
[16] = tested on: CAKI-1
[17] = tested on: MDA-MB-435
[18] = tested on: NCI-H522
[19] = tested on: SNB-19
[20] = tested on: SR
[21] = tested on: SN12C
[22] = tested on: OVCAR-4
[23] = tested on: PC-3
[24] = tested on: UACC-257
[25] = tested on: MDA-MB-231
[26] = tested on: SF-539
[27] = tested on: COLO 205
[28] = tested on: SF-295
[29] = tested on: SK-OV-3
[30] = tested on: HOP-62
[31] = tested on: KM12
[32] = tested on: HCT-116
[33] = tested on: HL-60
[34] = tested on: NCI-H23
[35] = tested on: OVCAR-5
[36] = tested on: SF-268
[37] = tested on: NCI/ADR-RES
[38] = tested on: EKVX
[39] = tested on: RPMI-8226
[40] = tested on: NCI-H460
[41] = tested on: K562
[42] = tested on: CCRF-CEM
[43] = tested on: ACHN
[44] = tested on: LOX IMVI
[45] = tested on: A549
[46] = tested on: MOLT-4
[47] = tested on: T47D
[48] = tested on: Malme-3M
[49] = tested on: UO-31
[50] = tested on: UACC-62
[51] = tested on: IGROV-1
[52] = tested on: A498
[53] = tested on: SK-MEL-5
[54] = tested on: Hs-578T
[55] = tested on: SK-MEL-28
[56] = tested on: HCC 2998
[57] = tested on: HOP-92

SMILES: O=c1[nH]nc(Cc2ccccc2)n1C1CCCC1
- GI50 [1]: > 100 µM (inactive)
- GI50 [2]: > 100 µM (inactive)
- GI50 [3]: > 100 µM (inactive)
- GI50 [4]: > 100 µM (inactive)
- GI50 [5]: > 100 µM (inactive)
- GI50 [6]: > 100 µM (inactive)
- GI50 [7]: > 100 µM
- GI50 [8]: > 100 µM (inactive)
- GI50 [9]: > 100 µM (inactive)
- GI50 [10]: > 100 µM (inactive)
- GI50 [11]: > 100 µM (inactive)
- GI50 [12]: > 100 µM (inactive)
- GI50 [13]: > 100 µM (inactive)
- GI50 [14]: > 100 µM (inactive)
- GI50 [15]: > 100 µM (inactive)
- GI50 [16]: > 100 µM (inactive)
- GI50 [17]: > 100 µM (inactive)
- GI50 [18]: > 100 µM (inactive)
- GI50 [19]: > 100 µM (inactive)
- GI50 [20]: > 100 µM (inactive)
- GI50 [21]: > 100 µM (inactive)
- GI50 [22]: > 100 µM (inactive)
- GI50 [23]: > 100 µM (inactive)
- GI50 [24]: > 100 µM (inactive)
- GI50 [25]: > 100 µM (inactive)
- GI50 [26]: > 100 µM (inactive)
- GI50 [27]: > 100 µM (inactive)
- GI50 [28]: > 100 µM (inactive)
- GI50 [29]: > 100 µM (inactive)
- GI50 [30]: > 100 µM (inactive)
- GI50 [31]: > 100 µM (inactive)
- GI50 [32]: > 100 µM (inactive)
- GI50 [33]: > 100 µM (inactive)
- GI50 [34]: > 100 µM (inactive)
- GI50 [35]: > 100 µM (inactive)
- GI50 [36]: > 100 µM (inactive)
- GI50 [37]: > 100 µM (inactive)
- GI50 [38]: > 100 µM (inactive)
- GI50 [39]: > 100 µM (inactive)
- GI50 [40]: > 100 µM (inactive)
- GI50 [41]: > 100 µM (inactive)
- GI50 [42]: > 100 µM (inactive)
- GI50 [43]: > 100 µM (inactive)
- GI50 [44]: > 100 µM (inactive)
- GI50 [45]: > 100 µM (inactive)
- GI50 [46]: > 100 µM (inactive)
- GI50 [47]: > 100 µM (inactive)
- GI50 [48]: > 100 µM (inactive)
- GI50 [49]: > 100 µM (inactive)
- GI50 [50]: > 100 µM (inactive)
- GI50 [51]: > 100 µM (inactive)
- GI50 [52]: > 100 µM (inactive)
- GI50 [53]: > 100 µM (inactive)
- GI50 [54]: > 100 µM (inactive)
- GI50 [55]: > 100 µM (inactive)
- GI50 [56]: > 100 µM (inactive)

SMILES: O=C(CC(C(=O)c1ccsc1)c1ccc2c(c1)OCO2)c1ccccc1 (centres undefined)
- GI50 [1]: 88.3 µM (inactive)
- GI50 [2]: > 100 µM (inactive)
- GI50 [3]: > 100 µM (inactive)
- GI50 [4]: > 100 µM (inactive)
- GI50 [5]: > 100 µM (inactive)
- GI50 [6]: > 100 µM (inactive)
- GI50 [7]: > 100 µM
- GI50 [8]: > 100 µM (inactive)
- GI50 [9]: > 100 µM (inactive)
- GI50 [10]: > 100 µM (inactive)
- GI50 [11]: > 100 µM (inactive)
- GI50 [12]: > 100 µM (inactive)
- GI50 [13]: > 100 µM (inactive)
- GI50 [14]: > 100 µM (inactive)
- GI50 [15]: > 100 µM (inactive)
- GI50 [16]: > 100 µM (inactive)
- GI50 [17]: > 100 µM (inactive)
- GI50 [18]: 59 µM (inactive)
- GI50 [20]: > 100 µM (inactive)
- GI50 [21]: > 100 µM (inactive)
- GI50 [22]: > 100 µM (inactive)
- GI50 [24]: > 100 µM (inactive)
- GI50 [26]: > 100 µM (inactive)
- GI50 [27]: > 100 µM (inactive)
- GI50 [28]: > 100 µM (inactive)
- GI50 [29]: > 100 µM (inactive)
- GI50 [30]: > 100 µM (inactive)
- GI50 [31]: > 100 µM (inactive)
- GI50 [32]: > 100 µM (inactive)
- GI50 [33]: > 100 µM (inactive)
- GI50 [34]: 0.209 µM (active)
- GI50 [57]: > 100 µM (inactive)
- GI50 [35]: > 100 µM (inactive)
- GI50 [36]: > 100 µM (inactive)
- GI50 [37]: > 100 µM (inactive)
- GI50 [38]: > 100 µM (inactive)
- GI50 [39]: > 100 µM (inactive)
- GI50 [40]: 94 µM (inactive)
- GI50 [41]: > 100 µM (inactive)
- GI50 [42]: > 100 µM (inactive)
- GI50 [43]: > 100 µM (inactive)
- GI50 [44]: > 100 µM (inactive)
- GI50 [45]: 8.17 µM (inactive)
- GI50 [46]: > 100 µM (inactive)
- GI50 [47]: 51.6 µM (inactive)
- GI50 [49]: > 100 µM (inactive)
- GI50 [50]: > 100 µM (inactive)
- GI50 [51]: > 100 µM (inactive)
- GI50 [52]: > 100 µM (inactive)
- GI50 [53]: 95.9 µM (inactive)
- GI50 [54]: > 100 µM (inactive)
- GI50 [55]: > 100 µM (inactive)
- GI50 [56]: > 100 µM (inactive)
